Measured values taken from ChEMBL document CHEMBL4507273 (2021).

Legend:
[1] = target: T1, 5-hydroxytryptamine receptor 1D (Homo sapiens, UniProt P28221); experiment: GPCRScan assay: inhibition of 5-HT1D; set-up: radioligand conc. used [nm] 1.0 – 2.0, parental cells HEKT
D(3) dopamine receptor = D(3) dopamine receptor (Homo sapiens, UniProt P35462); experiment: GPCRScan assay: inhibition of D3; set-up: radioligand conc. used [nm] 0.5 – 1.8, parental cells HEKT
[2] = target: Atypical kinase COQ8A, mitochondrial (Homo sapiens) (UniProt Q8NI60); details: Compound concentration 1000.0 nM
[3] = target: Bone morphogenetic protein receptor type-1A (Homo sapiens) (UniProt P36894); details: Compound concentration 1000.0 nM
[4] = tested on: Serine/threonine-protein kinase B-raf (Homo sapiens), P15056 [V600E]; details: Compound concentration 1000.0 nM
[5] = target: Calcium/calmodulin-dependent protein kinase kinase 2 (Homo sapiens) (UniProt Q96RR4); details: Compound concentration 1000.0 nM
[6] = target: Tyrosine-protein kinase CSK (Homo sapiens) (UniProt P41240); details: Compound concentration 1000.0 nM
[7] = target: Casein kinase I isoform gamma-3 (Homo sapiens) (UniProt Q9Y6M4); details: Compound concentration 1000.0 nM
[8] = target: Casein kinase II subunit alpha (Homo sapiens) (UniProt P68400); details: Compound concentration 1000.0 nM
[9] = target: Casein kinase II subunit alpha' (Homo sapiens) (UniProt P19784); details: Compound concentration 1000.0 nM
[10] = target: Serine/threonine-protein kinase DCLK3 (Homo sapiens) (UniProt Q9C098); details: Compound concentration 1000.0 nM
[11] = target: Discoidin domain-containing receptor 2 (Homo sapiens) (UniProt Q16832); details: Compound concentration 1000.0 nM
[12] = target: Ephrin type-A receptor 2 (Homo sapiens) (UniProt P29317); details: Compound concentration 1000.0 nM
[13] = target: Mitogen-activated protein kinase 3 (Homo sapiens) (UniProt P27361); details: Compound concentration 1000.0 nM
[14] = target: Tyrosine-protein kinase Fes/Fps (Homo sapiens) (UniProt P07332); details: Compound concentration 1000.0 nM
[15] = target: Tyrosine-protein kinase Fyn (Homo sapiens) (UniProt P06241); details: Compound concentration 1000.0 nM
[16] = target: Tyrosine-protein kinase JAK2 (Homo sapiens) (UniProt O60674); details: Compound concentration 1000.0 nM
[17] = tested on: Mast/stem cell growth factor receptor Kit (Homo sapiens), P10721 [A829P]; details: Compound concentration 1000.0 nM
[18] = tested on: Mast/stem cell growth factor receptor Kit (Homo sapiens), P10721 [V559D]; details: Compound concentration 1000.0 nM
[19] = tested on: Mast/stem cell growth factor receptor Kit (Homo sapiens), P10721 [V559D,V654A]; details: Compound concentration 1000.0 nM
[20] = target: Serine/threonine-protein kinase Nek3 (Homo sapiens) (UniProt P51956); details: Compound concentration 1000.0 nM
[21] = target: Serine/threonine-protein kinase Nek7 (Homo sapiens) (UniProt Q8TDX7); details: Compound concentration 1000.0 nM
[22] = target: Mitogen-activated protein kinase kinase kinase 14 (Homo sapiens) (UniProt Q99558); details: Compound concentration 1000.0 nM
[23] = target: Platelet-derived growth factor receptor beta (Homo sapiens) (UniProt P09619); details: Compound concentration 1000.0 nM
[24] = target: Phosphatidylinositol 4,5-bisphosphate 3-kinase catalytic subunit alpha isoform (Homo sapiens) (UniProt P42336); details: Compound concentration 1000.0 nM
[25] = target: Phosphatidylinositol 4,5-bisphosphate 3-kinase catalytic subunit beta isoform (Homo sapiens) (UniProt P42338); details: Compound concentration 1000.0 nM
[26] = target: Serine/threonine-protein kinase pim-1 (Homo sapiens) (UniProt P11309); details: Compound concentration 1000.0 nM
[27] = target: Ribosomal protein S6 kinase alpha-1 (Homo sapiens) (UniProt Q15418); details: Compound concentration 1000.0 nM
[28] = target: Serine/threonine-protein kinase Sgk3 (Homo sapiens) (UniProt Q96BR1); details: Compound concentration 1000.0 nM
[29] = target: High affinity nerve growth factor receptor (Homo sapiens) (UniProt P04629); details: Compound concentration 1000.0 nM
[30] = target: Tyrosine-protein kinase ZAP-70 (Homo sapiens) (UniProt P43403); details: Compound concentration 1000.0 nM
[31] = target: T1, 5-hydroxytryptamine receptor 1D; details: Compound concentration 10.0 uM
[32] = target: T2, 5-hydroxytryptamine receptor 2C (Homo sapiens) (UniProt P28335); details: Compound concentration 10.0 uM
T2 sequence (whole entry): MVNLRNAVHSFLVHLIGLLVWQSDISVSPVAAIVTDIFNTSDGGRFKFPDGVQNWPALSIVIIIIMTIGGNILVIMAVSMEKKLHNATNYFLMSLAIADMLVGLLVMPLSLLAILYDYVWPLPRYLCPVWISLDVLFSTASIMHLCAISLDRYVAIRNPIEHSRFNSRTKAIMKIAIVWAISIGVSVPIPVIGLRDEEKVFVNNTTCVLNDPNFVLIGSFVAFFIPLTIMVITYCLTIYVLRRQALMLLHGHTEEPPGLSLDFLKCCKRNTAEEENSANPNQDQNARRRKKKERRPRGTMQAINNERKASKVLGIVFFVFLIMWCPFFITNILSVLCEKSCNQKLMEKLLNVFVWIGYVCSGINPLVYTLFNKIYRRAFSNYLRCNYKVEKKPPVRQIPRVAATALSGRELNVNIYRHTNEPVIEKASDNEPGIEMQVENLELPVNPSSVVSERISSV

D(1A) dopamine receptor = D(1A) dopamine receptor (Homo sapiens, UniProt P21728); details: Compound concentration 10.0 uM
[33] = target: Kappa-type opioid receptor (Homo sapiens, UniProt P41145); details: Compound concentration 10.0 uM
[34] = target: GABA-A receptor; anion channel (Rattus norvegicus) (UniProt O09028+P15431+P18506+P18508+P19969+P20236+P23574+P23576+P28471+P28473+P30191+P62813+P63079+P63138+Q91ZM7+Q9ES14); details: Compound concentration 10.0 uM
[35] = target: Sigma intracellular receptor 2 (Homo sapiens, UniProt Q5BJF2); details: Compound concentration 10.0 uM

T1 sequence (P28221 whole entry): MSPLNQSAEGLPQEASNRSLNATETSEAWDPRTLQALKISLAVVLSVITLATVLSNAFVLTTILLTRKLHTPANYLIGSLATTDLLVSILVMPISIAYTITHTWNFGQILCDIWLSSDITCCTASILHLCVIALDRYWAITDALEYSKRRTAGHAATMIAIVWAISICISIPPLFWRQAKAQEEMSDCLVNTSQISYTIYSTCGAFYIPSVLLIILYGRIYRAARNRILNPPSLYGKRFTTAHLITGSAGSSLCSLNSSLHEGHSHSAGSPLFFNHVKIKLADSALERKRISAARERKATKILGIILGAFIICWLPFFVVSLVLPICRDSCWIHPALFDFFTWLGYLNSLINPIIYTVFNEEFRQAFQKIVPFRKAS
Chain of Mast/stem cell growth factor receptor Kit (Homo sapiens), P10721 [A829P] (P10721 whole entry A829P): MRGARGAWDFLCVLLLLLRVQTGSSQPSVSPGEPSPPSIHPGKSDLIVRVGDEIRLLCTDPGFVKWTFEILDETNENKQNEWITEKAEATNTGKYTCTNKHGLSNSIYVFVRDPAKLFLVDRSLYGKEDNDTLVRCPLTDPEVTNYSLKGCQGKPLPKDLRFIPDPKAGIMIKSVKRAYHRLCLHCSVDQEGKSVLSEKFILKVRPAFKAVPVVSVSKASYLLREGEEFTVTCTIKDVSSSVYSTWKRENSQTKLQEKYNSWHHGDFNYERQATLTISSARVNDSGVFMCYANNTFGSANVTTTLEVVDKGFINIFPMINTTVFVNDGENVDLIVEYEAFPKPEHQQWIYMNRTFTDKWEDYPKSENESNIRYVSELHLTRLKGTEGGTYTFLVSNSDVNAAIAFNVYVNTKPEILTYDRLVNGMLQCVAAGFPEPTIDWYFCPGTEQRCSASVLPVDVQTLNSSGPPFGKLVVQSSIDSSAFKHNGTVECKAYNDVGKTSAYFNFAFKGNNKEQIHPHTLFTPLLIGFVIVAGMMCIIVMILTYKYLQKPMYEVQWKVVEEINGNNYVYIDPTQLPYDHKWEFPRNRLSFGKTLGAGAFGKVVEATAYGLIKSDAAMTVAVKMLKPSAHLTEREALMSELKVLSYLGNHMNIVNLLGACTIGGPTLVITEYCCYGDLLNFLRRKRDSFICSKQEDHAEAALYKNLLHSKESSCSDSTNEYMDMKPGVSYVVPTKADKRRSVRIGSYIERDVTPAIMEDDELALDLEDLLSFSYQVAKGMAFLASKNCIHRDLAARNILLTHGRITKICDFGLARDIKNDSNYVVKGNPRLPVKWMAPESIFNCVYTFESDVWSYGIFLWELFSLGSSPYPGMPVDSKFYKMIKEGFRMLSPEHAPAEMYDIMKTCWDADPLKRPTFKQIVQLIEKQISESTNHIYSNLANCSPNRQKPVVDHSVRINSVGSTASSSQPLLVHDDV
Chain of Ribosomal protein S6 kinase alpha-1 (Homo sapiens) (Q15418 whole entry): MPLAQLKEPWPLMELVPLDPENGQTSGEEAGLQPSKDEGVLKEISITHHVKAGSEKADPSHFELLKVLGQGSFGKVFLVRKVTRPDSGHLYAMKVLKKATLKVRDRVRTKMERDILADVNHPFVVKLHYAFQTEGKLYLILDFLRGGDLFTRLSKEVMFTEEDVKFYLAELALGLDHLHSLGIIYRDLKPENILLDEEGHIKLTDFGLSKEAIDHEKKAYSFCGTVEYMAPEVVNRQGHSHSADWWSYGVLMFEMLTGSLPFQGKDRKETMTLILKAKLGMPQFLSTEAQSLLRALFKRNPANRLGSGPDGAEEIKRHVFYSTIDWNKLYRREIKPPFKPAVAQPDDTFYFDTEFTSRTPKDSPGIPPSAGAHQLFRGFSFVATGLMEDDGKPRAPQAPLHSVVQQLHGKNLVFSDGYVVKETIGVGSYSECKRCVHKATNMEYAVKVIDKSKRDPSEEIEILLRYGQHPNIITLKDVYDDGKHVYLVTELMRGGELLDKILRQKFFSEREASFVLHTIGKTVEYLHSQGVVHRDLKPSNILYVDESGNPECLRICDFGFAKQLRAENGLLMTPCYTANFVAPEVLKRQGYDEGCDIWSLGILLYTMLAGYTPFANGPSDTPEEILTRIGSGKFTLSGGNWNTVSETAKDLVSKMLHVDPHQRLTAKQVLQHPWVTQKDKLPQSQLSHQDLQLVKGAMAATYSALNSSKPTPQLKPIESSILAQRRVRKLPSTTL
Chain of Tyrosine-protein kinase Fyn (Homo sapiens) (P06241 2-537 limits assumed): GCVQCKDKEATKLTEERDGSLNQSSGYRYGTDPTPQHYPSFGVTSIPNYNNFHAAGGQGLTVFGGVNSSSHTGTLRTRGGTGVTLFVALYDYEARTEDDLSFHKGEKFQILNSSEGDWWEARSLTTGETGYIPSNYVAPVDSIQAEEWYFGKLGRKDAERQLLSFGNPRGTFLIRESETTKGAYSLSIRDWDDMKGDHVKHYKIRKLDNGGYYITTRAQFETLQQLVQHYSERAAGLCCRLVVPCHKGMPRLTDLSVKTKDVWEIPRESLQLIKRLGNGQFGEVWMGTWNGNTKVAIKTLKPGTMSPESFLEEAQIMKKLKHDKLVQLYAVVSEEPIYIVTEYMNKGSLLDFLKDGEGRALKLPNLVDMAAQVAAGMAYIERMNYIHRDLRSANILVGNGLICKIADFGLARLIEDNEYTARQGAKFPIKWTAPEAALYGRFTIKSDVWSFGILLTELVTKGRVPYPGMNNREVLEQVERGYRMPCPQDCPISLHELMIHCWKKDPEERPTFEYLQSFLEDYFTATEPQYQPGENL
Chain of Serine/threonine-protein kinase B-raf (Homo sapiens), P15056 [V600E] (P15056 whole entry V600E): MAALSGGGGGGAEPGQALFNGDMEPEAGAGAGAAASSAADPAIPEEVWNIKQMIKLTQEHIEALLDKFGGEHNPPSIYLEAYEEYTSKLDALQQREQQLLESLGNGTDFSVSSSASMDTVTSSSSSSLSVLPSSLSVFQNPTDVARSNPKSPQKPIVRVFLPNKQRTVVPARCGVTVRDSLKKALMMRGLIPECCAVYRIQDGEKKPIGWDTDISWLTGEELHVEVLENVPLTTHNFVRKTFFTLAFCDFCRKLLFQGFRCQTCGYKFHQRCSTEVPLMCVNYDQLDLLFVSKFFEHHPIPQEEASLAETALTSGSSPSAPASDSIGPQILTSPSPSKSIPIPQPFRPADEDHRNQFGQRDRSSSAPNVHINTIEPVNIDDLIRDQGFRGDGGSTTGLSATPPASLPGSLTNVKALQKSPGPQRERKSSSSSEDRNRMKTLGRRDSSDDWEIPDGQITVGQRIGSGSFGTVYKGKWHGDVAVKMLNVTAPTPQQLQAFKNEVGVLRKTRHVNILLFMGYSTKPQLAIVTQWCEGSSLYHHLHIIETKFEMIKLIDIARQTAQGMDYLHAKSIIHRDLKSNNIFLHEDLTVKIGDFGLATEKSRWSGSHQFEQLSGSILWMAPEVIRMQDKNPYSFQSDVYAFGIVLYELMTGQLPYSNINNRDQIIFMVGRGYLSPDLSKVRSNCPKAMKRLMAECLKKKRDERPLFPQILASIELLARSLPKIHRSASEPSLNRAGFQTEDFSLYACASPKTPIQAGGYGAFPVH
Chain of Casein kinase I isoform gamma-3 (Homo sapiens) (Q9Y6M4 whole entry, looked up, canonical isoform): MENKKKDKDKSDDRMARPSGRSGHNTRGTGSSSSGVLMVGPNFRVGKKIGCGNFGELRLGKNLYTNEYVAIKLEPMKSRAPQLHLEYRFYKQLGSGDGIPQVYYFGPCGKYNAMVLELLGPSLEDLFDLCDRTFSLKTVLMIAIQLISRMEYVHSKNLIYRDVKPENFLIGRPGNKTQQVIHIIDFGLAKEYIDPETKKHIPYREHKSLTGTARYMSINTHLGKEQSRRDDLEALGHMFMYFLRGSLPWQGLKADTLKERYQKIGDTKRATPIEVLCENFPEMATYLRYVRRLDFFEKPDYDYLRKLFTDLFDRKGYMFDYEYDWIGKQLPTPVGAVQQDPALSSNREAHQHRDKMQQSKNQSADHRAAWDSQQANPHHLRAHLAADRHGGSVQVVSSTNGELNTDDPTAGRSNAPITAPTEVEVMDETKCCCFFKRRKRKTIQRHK
Chain of Tyrosine-protein kinase CSK (Homo sapiens) (P41240 2-450 limits assumed): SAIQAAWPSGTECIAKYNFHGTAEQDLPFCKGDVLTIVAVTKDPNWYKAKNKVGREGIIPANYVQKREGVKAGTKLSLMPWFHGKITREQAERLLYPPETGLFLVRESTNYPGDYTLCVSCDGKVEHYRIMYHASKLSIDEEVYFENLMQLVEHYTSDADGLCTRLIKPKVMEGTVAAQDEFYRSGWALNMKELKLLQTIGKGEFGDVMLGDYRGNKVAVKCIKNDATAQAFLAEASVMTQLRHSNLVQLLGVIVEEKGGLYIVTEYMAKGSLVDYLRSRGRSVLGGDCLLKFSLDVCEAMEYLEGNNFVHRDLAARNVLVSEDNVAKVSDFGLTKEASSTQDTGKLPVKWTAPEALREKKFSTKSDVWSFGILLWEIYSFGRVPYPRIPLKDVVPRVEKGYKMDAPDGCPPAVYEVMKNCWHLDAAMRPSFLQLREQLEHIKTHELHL
Chain of Tyrosine-protein kinase ZAP-70 (Homo sapiens) (P43403 whole entry): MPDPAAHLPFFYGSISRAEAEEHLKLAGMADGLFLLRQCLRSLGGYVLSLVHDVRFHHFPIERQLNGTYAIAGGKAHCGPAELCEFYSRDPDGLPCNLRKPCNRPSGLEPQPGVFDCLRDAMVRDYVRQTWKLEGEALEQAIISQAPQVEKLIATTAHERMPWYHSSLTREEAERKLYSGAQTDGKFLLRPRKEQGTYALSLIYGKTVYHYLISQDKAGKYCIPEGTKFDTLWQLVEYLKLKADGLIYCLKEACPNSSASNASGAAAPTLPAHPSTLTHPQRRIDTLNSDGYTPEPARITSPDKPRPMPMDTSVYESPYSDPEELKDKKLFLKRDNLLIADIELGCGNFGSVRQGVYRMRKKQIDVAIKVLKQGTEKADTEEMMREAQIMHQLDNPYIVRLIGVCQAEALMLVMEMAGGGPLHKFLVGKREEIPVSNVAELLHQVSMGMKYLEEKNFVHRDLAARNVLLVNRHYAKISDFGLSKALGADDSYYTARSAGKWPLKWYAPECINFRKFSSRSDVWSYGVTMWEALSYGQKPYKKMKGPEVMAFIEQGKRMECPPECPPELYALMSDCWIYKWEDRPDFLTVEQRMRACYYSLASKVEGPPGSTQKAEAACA

Structure (SMILES)	Ki ([1]; read-out: Ki) [nM]	Ki ([1]; read-out: pKi (converted)) [nM]	Ki (D(3) dopamine receptor) [nM]	residual activity [2] [%]	residual activity [3] [%]	residual activity [4] [%]	residual activity [5] [%]	residual activity [6] [%]	residual activity [7] [%]	residual activity [8] [%]	residual activity [9] [%]	residual activity [10] [%]	residual activity [11] [%]	residual activity [12] [%]	residual activity [13] [%]	residual activity [14] [%]	residual activity [15] [%]	residual activity [16] [%]	residual activity [17] [%]	residual activity [18] [%]	further results
CNCc1ccccc1-c1csc([C@@H](C)Nc2nc(C)nc3cc(OC)c(OC)cc23)c1 [BAY-293]	181	170	936	92	91	100	100	100	99	83	100	95	92	76	94	100	100	67	87	100	residual activity [19]: 89%; residual activity [20]: 100%; residual activity [21]: 100%; residual activity [22]: 93%; residual activity [23]: 91%; residual activity [24]: 69%; residual activity [25]: 96%; residual activity [26]: 97%; residual activity [27]: 100%; residual activity [28]: 78%; residual activity [29]: 87%; residual activity [30]: 87%; inhibition [31]: 98.1%; inhibition [32]: 73.7%; inhibition (D(1A) dopamine receptor): 82.7%; inhibition [33]: 26.9%; inhibition [34]: 12.3%; inhibition [35]: 94.8%
CNCc1ccccc1-c1csc([C@H](C)Nc2nc(C)nc3cc(OC)c(OC)cc23)c1 [BAY-294]	93.5	92.3	869	91	100	84	82	100	93	91	100	100	94	80	100	100	100	63	100	100	residual activity [19]: 100%; residual activity [20]: 87%; residual activity [21]: 100%; residual activity [22]: 100%; residual activity [23]: 99%; residual activity [24]: 71%; residual activity [25]: 89%; residual activity [26]: 100%; residual activity [27]: 100%; residual activity [28]: 93%; residual activity [29]: 87%; residual activity [30]: 100%; inhibition [31]: 98.9%; inhibition [32]: 71.8%; inhibition (D(1A) dopamine receptor): 89.2%; inhibition [33]: 64.4%; inhibition [34]: 9.67%; inhibition [35]: 83.2%
